From the supplement of paper PMC11781733
Structures can show the parent of a compound that is named as a salt.

How the values were obtained:
Conditions in all cases: exposure time: 15 min to 3 h acute
[1] = tested on: Dugesia japonica; assay: crawl-out incidence (% planarians); higher = higher incidence or increase relative to vehicle control
Protocol: (§1)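 Adult asexual Dugesia japonica planarians (1 per well, 48-well plate, n=24 over technical triplicates) were exposed acutely (15 min to 3 h) to each compound (0.5% DMSO or water vehicle) and screened on a robotic platform for crawl-out, stickiness, body shape, phototaxis, noxious-heat scrunching and locomotion endpoints. Binary endpoints are incidence rate x100. Continuous endpoints are the median response normalised to the plate vehicle median, as % change or difference. Negative incidences after vehicle subtraction were set to 0.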

[2] = tested on: Dugesia japonica; assay: speed in dark vs vehicle (% change vs vehicle); higher = higher incidence or increase relative to vehicle control
Protocol: as §1, with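 “x100 normalised to in-plate vehicle controls.” for “x100.”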

[3] = tested on: Dugesia japonica; assay: C-shape incidence (% planarians (vehicle-normalised)); higher = higher incidence or increase relative to vehicle control
Summary of the method: (§2)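 Body shape incidence, for a given shape or for any abnormal shape, is reported ×100 and normalised to vehicle controls on the same plate, with negative values set to 0. D. japonica planarians fasted for 5–7 days were placed one per well in 200 μL in sealed 48-well plates and exposed to at least 5 concentrations. Within 15 minutes–3 hours of exposure, a researcher scored contraction, C-shape, corkscrew and hyperkinesis manually and blind, excluding worms that crawled out.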

[4] = tested on: Dugesia japonica; assay: corkscrew incidence (% planarians (vehicle-normalised)); higher = higher incidence or increase relative to vehicle control
Summary of the method: as §2

[5] = tested on: Dugesia japonica; assay: stickiness incidence (% planarians (vehicle-normalised)); higher = higher incidence or increase relative to vehicle control
Summary of the method: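 In the Stickiness assay, fasted Dugesia japonica planarians were each placed in one well of a sealed 48-well plate containing 200 μL of solution, with 0.5% DMSO or water as vehicle. Testing took place 15 min–3 h after exposure to half- or quarter-log concentration series. Stickiness was recorded as a binary endpoint, and its incidence was expressed relative to in-plate vehicle incidence after pooling technical triplicates and removing worms that crawled out. Negative values were set to 0 and all values were multiplied by 100.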

[6] = tested on: Dugesia japonica; assay: hyperkinesis incidence (% planarians (vehicle-normalised)); higher = higher incidence or increase relative to vehicle control
Summary of the method: as §2

[7] = tested on: Dugesia japonica; assay: speed first 30 s blue light vs vehicle (% change vs vehicle); higher = higher incidence or increase relative to vehicle control
Summary of the method: (§3)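 Crawling speed in the dark or during blue-light periods was measured by automated tracking of intact, fasted Dugesia japonica, one per well of a 48-well plate in 200 μL. Worms were tested 15 min to 3 h after exposure in 0.5% DMSO or water vehicle. Eight worms per concentration per plate were run in technical triplicate (n = 24). Each worm was normalised to the plate's vehicle median, and the value is the median percent change; worms that crawled out were excluded.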

[8] = tested on: Dugesia japonica; assay: speed second 30 s blue light vs vehicle (% change vs vehicle); higher = higher incidence or increase relative to vehicle control
Summary of the method: as §3

[9] = tested on: Dugesia japonica; assay: pharynx extrusion incidence (% planarians (vehicle-normalised)); higher = higher incidence or increase relative to vehicle control
Summary of the method: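 Fasted, intact Dugesia japonica were scored manually and blind for pharynx extrusion as a body-shape category, with the incidence normalised to in-plate vehicle controls. Testing took place 15 min to 3 h after exposure, one worm per well in 200 μL of 0.5% DMSO or water vehicle, with eight worms per concentration per plate in triplicate (n = 24). Worms that crawled out were excluded, and negative values were set to 0.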

[10] = tested on: Dugesia japonica; assay: loss of phototaxis incidence (% planarians (vehicle-normalised)); higher = higher incidence or increase relative to vehicle control
Summary of the method: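 For each concentration, eight intact, fasted Dugesia japonica per plate were placed singly in wells of a 48-well plate in 200 μL and run in technical triplicate (n = 24). Testing took place 15 min to 3 h after exposure in 0.5% DMSO or water vehicle. Loss of phototaxis was recorded as present or absent by automated object tracking and expressed as an incidence rate normalised to in-plate vehicle controls. For this rate, ×100 was applied, negatives were set to 0, and worms that crawled out were excluded.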

[11] = tested on: Dugesia japonica; assay: total locomotor bursts minus vehicle (bursts difference vs vehicle); higher = higher incidence or increase relative to vehicle control
Summary of the method: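 Fasted Dugesia japonica planarians, one per well of a sealed 48-well plate in 200 μL solution, were tested 15 min–3 h after exposure to half- or quarter-log concentration series. The vehicle was 0.5% DMSO or water. Total locomotor bursts, an unstimulated behaviour, came from image-based object tracking, with technical triplicates totalling n = 24. Each planarian's value had the plate vehicle-control median subtracted, without ×100 scaling. The value is the median normalised response, and crawled-out worms were excluded.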

[12] = tested on: Dugesia japonica; assay: noxious heat displacement strength vs vehicle (% change vs vehicle); higher = higher incidence or increase relative to vehicle control
Summary of the method: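 Each intact, fasted Dugesia japonica was tested alone in a well of a 48-well plate in 200 μL, 15 min to 3 h after exposure in 0.5% DMSO or water vehicle. Eight worms per concentration per plate were used in technical triplicate (n = 24). Displacement strength under noxious heat came from the scrunching assay with automated object tracking and is given as the median percent change against the plate's vehicle median, excluding worms that crawled out.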

[13] = tested on: Dugesia japonica; assay: contracted body shape incidence (% planarians (vehicle-normalised)); higher = higher incidence or increase relative to vehicle control
Summary of the method: as §2

[14] = tested on: Dugesia japonica; assay: anxiety (time in outer well region) vs vehicle (% change vs vehicle); higher = higher incidence or increase relative to vehicle control
Summary of the method: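 Dugesia japonica planarians fasted for 5–7 days were placed one per well in 200 μL in sealed 48-well plates and exposed to at least 5 concentrations, with n = 24 per concentration in technical triplicates, then screened within 15 minutes–3 hours. Object tracking in MATLAB or Python measured the time each worm spent in the outer portion of the well, and worms that crawled out were excluded. Each response was divided by, or reduced by, the plate vehicle median and multiplied by 100. The reported value is the median of these normalized responses.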

[15] = tested on: Dugesia japonica; assay: any abnormal body shape incidence (% planarians (vehicle-normalised)); higher = higher incidence or increase relative to vehicle control
Summary of the method: as §2

[16] = tested on: Dugesia japonica; assay: resting fraction in dark vs vehicle (difference in fraction x100 vs vehicle); higher = higher incidence or increase relative to vehicle control
Summary of the method: (§4)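 In technical triplicate, eight intact, fasted Dugesia japonica per concentration per plate were tracked automatically to score the resting fraction in the dark or under blue light. Each worm had its own well of a 48-well plate containing 200 μL and was tested 15 min to 3 h after exposure in 0.5% DMSO or water vehicle. Reported values are medians of each worm's difference from the plate's vehicle median multiplied by 100, leaving out worms that crawled out.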

[17] = tested on: Dugesia japonica; assay: loss of heat-induced scrunching incidence (% planarians (vehicle-normalised)); higher = higher incidence or increase relative to vehicle control
Summary of the method: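 Planarians of the species D. japonica, fasted for 5–7 days, were placed singly in wells of sealed 48-well plates in 200 μL and exposed to at least 5 concentrations, 24 worms per concentration in technical triplicates. Scrunching in response to a noxious heat stimulus was tested within 15 minutes–3 hours, and any worm that crawled out was excluded. The reported figure is the incidence of non-scrunching worms, normalised to vehicle controls on the same plate. This incidence is given ×100, with negatives set to 0.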

[18] = tested on: Dugesia japonica; assay: resting fraction in blue light vs vehicle (difference in fraction x100 vs vehicle); higher = higher incidence or increase relative to vehicle control
Summary of the method: as §4

| Structure (SMILES) | crawl-out incidence [1] | speed in dark [2] | C-shape incidence [3] | corkscrew incidence [4] | stickiness incidence [5] | hyperkinesis incidence [6] | speed first 30 s blue light [7] | speed second 30 s blue light [8] | pharynx extrusion incidence [9] | loss of phototaxis incidence [10] | total locomotor bursts minus vehicle [11] | noxious heat displacement strength [12] | contracted body shape incidence [13] | anxiety [14] | any abnormal body shape incidence [15] | resting fraction in dark [16] | loss of heat-induced scrunching incidence [17] | resting fraction in blue light [18] |
| --- | --- | --- | --- | --- | --- | --- | --- | --- | --- | --- | --- | --- | --- | --- | --- | --- | --- | --- |
| CN(C)CCCN1c2ccccc2CCc2ccccc21 [imipramine] (0.316 µM) | 0 | -16.2 | 0 | 0 | ≤ 0 | 0 | -17.6 | -12.2 | 0 | 4.17 | 5.25 | 23.7 | 4.17 | -0.7 | 8.33 | 5.24 | ≤ 0 | 1.3 |
| Cc1ncc2n1-c1ccc(Cl)cc1C(c1ccccc1F)=NC2 [midazolam] (10 µM) | 0 | -4.66 | 0 | 0 | ≤ 0 | 8.33 | 12.7 | 6.88 | 0 | ≤ 0 | -1.5 | -18.8 | 0 | -4.77 | 8.33 | 0.667 | ≤ 0 | -0.5 |
| Cc1cc2c(s1)Nc1ccccc1N=C2N1CCN(C)CC1 [olanzapine] (3.16 µM) | 4.17 | -69 | 8.33 | 0 | ≤ 0 | 54.2 | -79.2 | -75.2 | 0 | ≤ 0 | 41.2 | -37.1 | 0 | -4.66 | 58.3 | 51.2 | 45.8 | 34 |
| CN1CCN(CCCN2c3ccccc3Sc3ccc(Cl)cc32)CC1 [prochloroperazine] (1 µM) | 4.17 | -31 | 0 | 0 | ≤ 0 | 4.35 | -22.6 | -13.4 | 0 | 4.35 | 10.5 | -10.7 | 0 | 9.41 | 4.35 | 7.43 | 26.1 | 5.37 |
| CNCC[C@H](Oc1cccc2ccccc12)c1cccs1 [s-duloxetine] (1 µM) | 4.17 | 13.6 | 0 | 0 | 13 | 0 | 34.6 | -13.5 | 0 | 17.4 | 7 | -35.3 | 0 | 12.8 | 0 | -7.56 | 13 | 9.83 |
| CN[C@H]1CC[C@@H](c2ccc(Cl)c(Cl)c2)c2ccccc21 [sertraline hydrochloride] (1 µM) | 0 | 0.19 | 0 | 0 | 8.33 | 12.5 | -11.7 | -15.7 | 0 | ≤ 0 | -2.5 | -12.6 | 0 | 5.35 | 12.5 | 5.44 | 4.17 | 0 |
| CCCCNc1c(C(=O)OCC)c(C)nc2c1cnn2CC [tracazolate hydrochloride] (1 µM) | 0 | -16.4 | 0 | 0 | 8.33 | 0 | -20 | -8.21 | 0 | ≤ 0 | 3.25 | -26.2 | 0 | -16.4 | 0 | 1.34 | ≤ 0 | 0.18 |
